This passage reports activation and inhibition results from patent US8822517B2, “Arylosulfonamides for the treatment of CNS diseases” (Adamed SP. Z O.O., priority 2010, dated 2014).

For experiment [1], the target named is T1, serotoninergic 5-HT6 receptor (Homo sapiens, UniProt P50406). Description: Cellular functional assay, serotoninergic 5-HT6 receptor (agonism/antagonism). The experiment is classed as cell-based. Conditions: for activation at 1 µM: agonist effect, percent of control specific agonist response, compounds tested at 1×10^−6M, read-out: 5-HT6-ag [%]; for inhibition at 1 µM: read-out: 5-HT6-antag. [%]. On the procedure:
(§1) The compounds were tested at the concentration of 1×10^−6M.
(§2) In the Tables ag refers to agonism, and antag to antagonism).

Experiment [2] has as its target histaminergic H1 receptor (Homo sapiens, UniProt P35367). As to the kind of experiment: Binding assay H1 (h), [3H]pyrilamine, HEK-293 cells. Also noted: expressed in transfected cells; host or cells: HEK-293 cells. Conditions: read-out: H1 [%]. The method in brief:
(§3)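 Specific ligand binding was taken as total minus non-specific binding, with the latter defined in the presence of surplus unlabelled ligand. Each compound was tested at a single 1×10^−6 M concentration.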

The target in another experiment is T2, adrenergic α1A receptor (Homo sapiens, UniProt P35348).
T2 sequence (P35348 1-466): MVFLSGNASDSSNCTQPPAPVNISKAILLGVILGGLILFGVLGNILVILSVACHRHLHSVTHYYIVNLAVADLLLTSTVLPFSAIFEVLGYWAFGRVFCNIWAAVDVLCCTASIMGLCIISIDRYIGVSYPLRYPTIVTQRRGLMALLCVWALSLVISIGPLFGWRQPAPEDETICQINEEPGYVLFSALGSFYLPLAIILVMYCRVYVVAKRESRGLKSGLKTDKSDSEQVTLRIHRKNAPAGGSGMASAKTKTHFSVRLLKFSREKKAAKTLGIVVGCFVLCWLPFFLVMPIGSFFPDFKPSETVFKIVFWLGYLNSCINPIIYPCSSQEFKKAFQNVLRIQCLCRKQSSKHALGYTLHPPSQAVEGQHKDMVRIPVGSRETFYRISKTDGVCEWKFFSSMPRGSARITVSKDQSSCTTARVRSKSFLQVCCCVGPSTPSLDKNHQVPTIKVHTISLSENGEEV
Description: Cellular functional assay, adrenergic α1A receptor (agonism/antagonism). The experiment is classed as cell-based. Conditions: for activation at 1 µM: agonist effect, percent of control specific agonist response, compounds tested at 1×10^−6M, read-out: α1A -ag [%]; for inhibition at 1 µM: read-out: α1A -antag. [%]. As to the method:
[…]. The compounds were tested at the concentration of 1×10^−6M.
Conditions and methodology (by reference to the literature) of cellular functional assays are given in Table 13 and the tests results for representative compounds are given in Table 14 (dopaminergic receptor D2), in Table 15 (dopaminergic receptor D3), in Table 16 (serotoninergic receptor 5-HT1A), in Table 17 (serotoninergic receptor 5-HT2A), in Table 18 (serotoninergic receptor 5-HT6), in Table 19 (serotoninergic receptor 5-HT7), in Table 20 (adrenergic α1 receptor), in Table 21 (adrenergic α2C receptor), in Table 22 (histaminergic H1 receptor) and in Table 23 (serotoninergic 5-HT2C receptor). In the Tables ag refers to agonism, and antag to antagonism).

The next experiment deals with dopaminergic D3 receptor (Homo sapiens, UniProt P35462). As to the kind of experiment: Cellular functional assay, dopaminergic D3 receptor (agonism/antagonism). The experiment is classed as cell-based. Conditions: for inhibition at 1 µM: CHO, read-out: D3-antag. [%]; for activation at 1 µM: agonist effect, percent of control specific agonist response (300 nM dopamine for control), 1×10^−6 M, D3 (h), CHO cells, read-out: D3-ag [%]. On the procedure:
as §1, §2

The target of the next experiment is T3, muscarinic M3 receptor (Homo sapiens, UniProt P20309).
T3 construct: expressed in transfected cells; host or cells: CHO cells
Description: Binding assay M3 (h), [3H]4-DAMP, CHO cells. Conditions: read-out: M3 [%]. The method in brief: as §3

The next experiment addresses dopaminergic D2 receptor (Homo sapiens, UniProt P14416). Description: Binding assay D2S (h), [3H]methyl-spiperone, HEK-293 cells. On the set-up: expressed in transfected cells; host or cells: HEK-293 cells. Conditions: read-out: D2 [%]. The method in brief: as §3
Experiment [3] addresses serotoninergic 5-HT7 receptor (Homo sapiens, UniProt P34969). Description: Binding assay 5-HT7 (h), [3H]LSD, CHO cells. Also noted: expressed in transfected cells; host or cells: CHO cells. Conditions: read-out: 5-HT7. The method in brief: as §3
A further experiment concerns the target T4, adrenergic α2C receptor (Homo sapiens, UniProt P18825).
T4 sequence (P18825 1-462): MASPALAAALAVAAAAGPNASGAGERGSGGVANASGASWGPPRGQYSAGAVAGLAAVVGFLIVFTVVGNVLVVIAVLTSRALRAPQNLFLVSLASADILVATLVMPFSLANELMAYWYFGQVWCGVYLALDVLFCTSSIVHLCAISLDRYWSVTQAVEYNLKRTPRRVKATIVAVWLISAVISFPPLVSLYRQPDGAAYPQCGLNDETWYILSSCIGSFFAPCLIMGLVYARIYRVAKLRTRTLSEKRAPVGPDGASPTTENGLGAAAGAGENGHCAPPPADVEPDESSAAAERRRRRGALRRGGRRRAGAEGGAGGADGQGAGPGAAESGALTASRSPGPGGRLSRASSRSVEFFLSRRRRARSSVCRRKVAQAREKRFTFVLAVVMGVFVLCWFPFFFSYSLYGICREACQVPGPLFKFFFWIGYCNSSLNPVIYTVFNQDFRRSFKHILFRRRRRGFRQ
As to the kind of experiment: Cellular functional assay, adrenergic α2C receptor (agonism/antagonism). The experiment is classed as cell-based. Conditions: for activation at 1 µM: agonist effect, percent of control specific agonist response, compounds tested at 1×10^−6M, read-out: α2C −ag [%]; for inhibition at 1 µM: read-out: α2C −antag. [%]. On the procedure: as §1, §2

Experiment [4] concerns the target T1, serotoninergic 5-HT6 receptor. Description: Binding assay 5-HT6 (h), [3H]LSD, CHO cells. On the set-up: expressed in transfected cells; host or cells: CHO cells. Conditions: read-out: 5-HT6. The method in brief:
as §3

In experiment [5] the target is T5, serotonine transporter (SERT) receptor (Homo sapiens, UniProt P31645).
T5 construct: expressed in transfected cells; host or cells: CHO cells
As to the kind of experiment: Binding assay SERT (h), [3H]imipramine, CHO cells. Conditions: read-out: SERT [%]. The method in brief:
as §3

Sequence of histaminergic H1 receptor (P35367 whole entry): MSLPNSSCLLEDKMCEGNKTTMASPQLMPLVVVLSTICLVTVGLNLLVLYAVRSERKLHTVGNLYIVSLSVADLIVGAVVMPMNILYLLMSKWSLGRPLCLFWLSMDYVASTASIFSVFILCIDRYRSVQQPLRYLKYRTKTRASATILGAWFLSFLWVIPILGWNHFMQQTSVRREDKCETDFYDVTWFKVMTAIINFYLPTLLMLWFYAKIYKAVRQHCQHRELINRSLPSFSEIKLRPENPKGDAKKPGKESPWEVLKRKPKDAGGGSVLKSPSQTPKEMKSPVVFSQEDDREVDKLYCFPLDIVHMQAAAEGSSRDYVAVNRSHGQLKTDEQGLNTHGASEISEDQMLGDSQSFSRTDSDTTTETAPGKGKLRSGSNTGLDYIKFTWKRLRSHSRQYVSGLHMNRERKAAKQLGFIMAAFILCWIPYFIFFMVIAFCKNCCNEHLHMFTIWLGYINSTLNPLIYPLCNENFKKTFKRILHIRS
Sequence of dopaminergic D2 receptor (P14416 1-414 isoform P14416-2): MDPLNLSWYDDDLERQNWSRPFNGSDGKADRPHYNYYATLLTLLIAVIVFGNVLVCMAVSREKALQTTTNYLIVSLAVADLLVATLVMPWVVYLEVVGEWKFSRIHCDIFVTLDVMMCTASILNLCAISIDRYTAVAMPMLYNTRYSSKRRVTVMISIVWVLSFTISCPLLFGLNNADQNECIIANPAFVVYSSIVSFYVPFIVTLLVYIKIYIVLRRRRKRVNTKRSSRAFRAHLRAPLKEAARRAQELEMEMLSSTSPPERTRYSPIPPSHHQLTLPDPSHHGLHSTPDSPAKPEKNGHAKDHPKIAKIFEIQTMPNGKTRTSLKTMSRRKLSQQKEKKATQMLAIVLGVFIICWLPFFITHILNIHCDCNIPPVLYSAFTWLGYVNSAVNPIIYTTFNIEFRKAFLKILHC
Sequence of serotoninergic 5-HT7 receptor (P34969 whole entry): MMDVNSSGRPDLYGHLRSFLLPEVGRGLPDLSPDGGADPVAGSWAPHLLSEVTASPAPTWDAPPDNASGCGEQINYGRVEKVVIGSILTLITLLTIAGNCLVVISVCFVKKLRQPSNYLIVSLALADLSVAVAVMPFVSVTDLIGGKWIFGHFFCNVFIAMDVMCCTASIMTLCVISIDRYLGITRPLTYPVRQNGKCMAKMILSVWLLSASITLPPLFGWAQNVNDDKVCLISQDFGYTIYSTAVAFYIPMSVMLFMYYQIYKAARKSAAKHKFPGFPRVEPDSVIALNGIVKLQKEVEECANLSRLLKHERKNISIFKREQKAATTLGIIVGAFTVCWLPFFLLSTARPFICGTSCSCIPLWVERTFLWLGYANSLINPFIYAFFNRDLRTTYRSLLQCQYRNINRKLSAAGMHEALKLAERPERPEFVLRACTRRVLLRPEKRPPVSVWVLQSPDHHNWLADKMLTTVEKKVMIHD
Sequence of dopaminergic D3 receptor (P35462 whole entry): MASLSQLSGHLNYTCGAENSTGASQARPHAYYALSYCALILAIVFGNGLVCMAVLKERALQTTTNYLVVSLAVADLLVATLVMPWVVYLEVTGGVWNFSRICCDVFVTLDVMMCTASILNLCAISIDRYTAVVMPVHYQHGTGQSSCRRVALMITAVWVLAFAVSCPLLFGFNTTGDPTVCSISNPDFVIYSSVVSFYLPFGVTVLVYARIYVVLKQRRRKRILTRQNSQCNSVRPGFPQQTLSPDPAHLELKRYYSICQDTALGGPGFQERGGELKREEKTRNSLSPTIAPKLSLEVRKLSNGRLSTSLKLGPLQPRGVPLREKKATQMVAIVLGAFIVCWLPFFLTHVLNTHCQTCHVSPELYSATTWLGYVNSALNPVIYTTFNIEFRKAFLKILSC
T3 sequence (P20309 whole entry): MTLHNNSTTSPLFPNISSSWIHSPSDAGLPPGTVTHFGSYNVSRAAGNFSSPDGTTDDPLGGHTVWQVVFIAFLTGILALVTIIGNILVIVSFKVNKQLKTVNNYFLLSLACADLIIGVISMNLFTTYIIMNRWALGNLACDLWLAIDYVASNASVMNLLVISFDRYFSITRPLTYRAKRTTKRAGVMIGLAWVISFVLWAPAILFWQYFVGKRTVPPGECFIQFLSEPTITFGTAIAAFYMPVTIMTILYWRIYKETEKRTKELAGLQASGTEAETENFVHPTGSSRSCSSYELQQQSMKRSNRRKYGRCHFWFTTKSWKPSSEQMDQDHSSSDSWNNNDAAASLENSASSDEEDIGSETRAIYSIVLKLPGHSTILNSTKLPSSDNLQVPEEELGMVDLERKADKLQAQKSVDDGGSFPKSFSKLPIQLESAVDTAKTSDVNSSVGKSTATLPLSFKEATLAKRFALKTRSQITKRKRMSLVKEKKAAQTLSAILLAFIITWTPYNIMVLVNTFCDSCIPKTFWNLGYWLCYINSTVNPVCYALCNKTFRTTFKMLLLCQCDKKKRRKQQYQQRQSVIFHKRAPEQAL
T5 sequence (P31645 whole entry): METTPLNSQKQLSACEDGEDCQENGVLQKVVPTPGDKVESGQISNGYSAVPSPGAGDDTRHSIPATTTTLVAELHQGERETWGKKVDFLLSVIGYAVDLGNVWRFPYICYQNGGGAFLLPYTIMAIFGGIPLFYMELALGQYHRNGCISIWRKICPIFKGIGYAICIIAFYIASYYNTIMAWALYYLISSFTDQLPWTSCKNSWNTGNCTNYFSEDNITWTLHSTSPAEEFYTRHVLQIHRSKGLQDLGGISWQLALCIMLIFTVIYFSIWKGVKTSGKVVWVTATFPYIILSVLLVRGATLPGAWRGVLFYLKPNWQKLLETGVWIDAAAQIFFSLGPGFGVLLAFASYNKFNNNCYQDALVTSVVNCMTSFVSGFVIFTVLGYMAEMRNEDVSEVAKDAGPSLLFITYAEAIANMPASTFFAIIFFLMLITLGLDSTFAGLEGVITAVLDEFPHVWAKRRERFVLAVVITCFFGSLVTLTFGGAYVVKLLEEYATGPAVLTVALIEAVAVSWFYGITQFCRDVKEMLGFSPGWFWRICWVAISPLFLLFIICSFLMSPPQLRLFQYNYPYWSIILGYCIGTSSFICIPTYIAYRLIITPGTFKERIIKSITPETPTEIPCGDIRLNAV
T1 sequence (P50406 whole entry): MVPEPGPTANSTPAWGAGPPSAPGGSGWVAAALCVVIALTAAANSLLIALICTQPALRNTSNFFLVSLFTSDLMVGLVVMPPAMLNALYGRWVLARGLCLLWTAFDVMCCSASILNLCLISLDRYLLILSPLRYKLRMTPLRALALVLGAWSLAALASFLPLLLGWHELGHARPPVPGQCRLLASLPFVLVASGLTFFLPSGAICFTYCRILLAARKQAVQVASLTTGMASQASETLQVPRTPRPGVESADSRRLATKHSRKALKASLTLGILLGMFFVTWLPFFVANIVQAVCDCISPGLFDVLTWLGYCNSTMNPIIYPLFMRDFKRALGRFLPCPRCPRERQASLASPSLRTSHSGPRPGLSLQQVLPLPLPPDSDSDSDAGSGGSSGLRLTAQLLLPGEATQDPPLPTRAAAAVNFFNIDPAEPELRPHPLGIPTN

Take `O=S(=O)(NCCCCN1CCN(c2nsc3ccccc23)CC1)c1cccc2ccccc12` [Compound 1, N-(4-(4-(1,2-Benzothiazol-3-yl)piperazin-1-yl)butyl)naphthalene-1-sulphonamide]: the activation at 1 µM in experiment [1] was 1%; at adrenergic α1A receptor, 0%; on dopaminergic D3 receptor it was -17%; on adrenergic α2C receptor, -9%. Moreover, the inhibition at 1 µM in experiment [1] came out at 39%; in [2], 91%; on adrenergic α1A receptor, 100%; on dopaminergic D3 receptor it was 49%; at muscarinic M3 receptor, 13%; at dopaminergic D2 receptor it was 97%. The inhibition at 1 µM in [3] came out at 96%; at adrenergic α2C receptor, 7%; in experiment [4] it was 95%; in experiment [5], 49%.
`O=S(=O)(NCCCCN1CCC(c2noc3cc(F)ccc23)CC1)c1ccc2ccccc2c1` [Compound 18, N-[4-[4-(6-Fluoro-1,2-benzoxazol-3-yl)piperidin-1-yl]butyl]naphthalene-2-sulphonamide]: the activation at 1 µM in [1] is 1%; at adrenergic α1A receptor, 0%; at dopaminergic D3 receptor it was -27%; on adrenergic α2C receptor it was -10%. Further, the inhibition at 1 µM in experiment [1] was 87%; in [2], 79%; at adrenergic α1A receptor it was 99%; at dopaminergic D3 receptor, 114%; at muscarinic M3 receptor it was 6%; at dopaminergic D2 receptor, 98%. In addition, the inhibition at 1 µM worked out at 98% in experiment [3], 28% on adrenergic α2C receptor, 100% in [4] and 39% in experiment [5].
With `O=S(=O)(NCCCCN1CCN(c2noc3ccccc23)CC1)c1ccc2ccccc2c1` [Compound 14, N-(4-(4-(1,2-Benzoxazol-3-yl)piperazin-1-yl)butyl)naphthalene-2-sulphonamide], the activation at 1 µM is 1% in experiment [1], 0% at adrenergic α1A receptor, -15% on dopaminergic D3 receptor and -3% on adrenergic α2C receptor. Further, the inhibition at 1 µM in [1] is 69%; in experiment [2], 88%; at adrenergic α1A receptor, 100%; on dopaminergic D3 receptor it was 92%; on muscarinic M3 receptor, -6%; on dopaminergic D2 receptor, 99%. In addition, the inhibition at 1 µM is 99% in experiment [3], 12% at adrenergic α2C receptor, 99% in experiment [4] and 3% in experiment [5].
For the molecule `O=S(=O)(NCCCCN1CCC(c2noc3cc(F)ccc23)CC1)c1cc2ccc(Cl)cc2s1` [Compound 314, 6-Chloro-N-[4-[4-(6-fluoro-1,2-benzoxazol-3-yl)piperidin-1-yl]butyl]benzothiophene-2-sulphonamide], the activation at 1 µM was 0% in experiment [1], 1% at adrenergic α1A receptor, -30% at dopaminergic D3 receptor and -2% on adrenergic α2C receptor. Further, the inhibition at 1 µM in [1] worked out at 91%; in [2] it was 93%; on adrenergic α1A receptor, 100%; at dopaminergic D3 receptor, 110%; on muscarinic M3 receptor it was 13%; on dopaminergic D2 receptor, 99%. Besides, the inhibition at 1 µM in experiment [3] is 99%; on adrenergic α2C receptor, 30%; in [4], 100%; in experiment [5] it was 50%.
`O=S(=O)(NCCCCN1CCC(c2noc3cc(F)ccc23)CC1)c1csc2ccccc12` [Compound 313, N-[4-[4-(6-Fluoro-1,2-benzoxazol-3-yl)piperidin-1-yl]butyl]benzothiophene-3-sulphonamide]: the activation at 1 µM in experiment [1] was -3%; at adrenergic α1A receptor it was 0%; at dopaminergic D3 receptor it was 8%; on adrenergic α2C receptor it was -11%. Moreover, the inhibition at 1 µM in experiment [1] is 91%; in experiment [2] it was 90%; at adrenergic α1A receptor it was 100%; on dopaminergic D3 receptor, 81%; at muscarinic M3 receptor, 25%; on dopaminergic D2 receptor, 101%. Further, the inhibition at 1 µM was found to be 100% in experiment [3], 46% at adrenergic α2C receptor, 100% in experiment [4] and 23% in [5].
In the case of `O=S(=O)(NCCCCN1CCN(c2noc3ccccc23)CC1)c1c[nH]c2ncccc12` [Compound 89, N-[4-[4-(1,2-Benzoxazol-3-yl)piperazin-1-yl]butyl]-1H-pyrrolo[2,3-b]pyridine-3-sulphonamide], the activation at 1 µM in experiment [1] was 0%; on adrenergic α1A receptor it was -1%; at dopaminergic D3 receptor, -18%; at adrenergic α2C receptor it was -10%. Also, the inhibition at 1 µM in [1] was determined as 83%; in experiment [2] it was 85%; at adrenergic α1A receptor, 100%; on dopaminergic D3 receptor it was 69%; at muscarinic M3 receptor, 22%; at dopaminergic D2 receptor, 89%. For the same molecule, the inhibition at 1 µM in [3] is 98%; at adrenergic α2C receptor, 7%; in experiment [4] it was 94%; in experiment [5] it was 2%.
